From patent publication US11236081B2, “Crystalline salts of corydalmine” (priority 2018, dated 2022)
“And” between values parts separate entries of the source, which are not always exact repeats. Equal entries are not always repeated.

Legend:
[1] = Acid pKa of the free base; assay type: physicochemical
[2] = Pharmacokinetic study: plasma concentration and plasma PK parameters after IV/PO dosing (LC-MS/MS, WinNonlin); assay type: in vivo, Male SD Rat; conditions: male SD rat
From the text: Pharmacokinetic and Brain Penetration Study
Dose formulation processing during dosing: The dose formulations will be kept at room temperature.
Concentrations of Test Article in the plasma samples will be analyzed using a LC-MS/MS method.
WinNonlin (Phoenix™, version 6.1) or other similar software will be used for pharmacokinetic calculations. The following pharmacokinetic parameters will be calculated, whenever possible from the plasma concentration versus time data:
IV administration: T1/2, C0, AUClast, AUCinf, MRTinf, Cl, Vss, Number of Points for Regression.
PO administration: T1/2, Cmax, Tmax, MRTinf, AUCinf, AUClast, F %, Number of Points for Regression.
The pharmacokinetic data will be described using descriptive statistics such as mean, standard deviation.

[3] = IV 3 mg/kg, plasma, individual rats, listed as TLZ-16 freebase, 3 mg/kg
[4] = PO 10 mg/kg (equal to freebase), plasma, individual rats, vehicle 20% HP-β-CD in water (POA, freebase) or water (salts), listed as TLZ-16 freebase, 10 mg/kg

COc1cc2c(cc1OC)[C@@H]1Cc3ccc(O)c(OC)c3CN1CC2 [Compound (1), l-corydalmine]
pKa [1]: ~5.2 | concentration in plasma ([2]; IV 3 mg/kg, 0 h, individual rats): BLOQ (BLOQ = below limit of quantitation (0.2 ng/mL)) | concentration in plasma ([2]; IV 3 mg/kg, 0.083 h, individual rats, listed as TLZ-16 freebase, 3 mg/kg): 1410 ng/mL and 1610 ng/mL | concentration in plasma ([2]; IV 3 mg/kg, 0.25 h, individual rats, listed as TLZ-16 freebase, 3 mg/kg): 960 ng/mL and 995 ng/mL | concentration in plasma ([2]; IV 3 mg/kg, 0.5 h, individual rats, listed as TLZ-16 freebase, 3 mg/kg): 496 ng/mL and 536 ng/mL | concentration in plasma ([2]; IV 3 mg/kg, 1 h, individual rats, listed as TLZ-16 freebase, 3 mg/kg): 174 ng/mL and 206 ng/mL | concentration in plasma ([2]; IV 3 mg/kg, 2 h, individual rats, listed as TLZ-16 freebase, 3 mg/kg): 81.2 ng/mL and 60.6 ng/mL | concentration in plasma ([2]; IV 3 mg/kg, 4 h, individual rats, listed as TLZ-16 freebase, 3 mg/kg): 28.6 ng/mL and 43.0 ng/mL and 20.2 ng/mL | concentration in plasma ([2]; IV 3 mg/kg, 8 h, individual rats, listed as TLZ-16 freebase, 3 mg/kg): 5.24 ng/mL and 11.7 ng/mL and 2.20 ng/mL | concentration in plasma ([2]; IV 3 mg/kg, 24 h, individual rats, listed as TLZ-16 freebase, 3 mg/kg): BLOQ (BLOQ = below limit of quantitation (0.2 ng/mL)) | AUCInf [2, 3]: 1074 ng·h/mL and 1030 ng·h/mL | AUClast [2, 3]: 1038 ng·h/mL and 1027 ng·h/mL | AUClast/D [2, 3]: 312 kg·ng·h/mL/mg and 346 kg·ng·h/mL/mg and 342 kg·ng·h/mL/mg | AUC—% Extrap_obs [2, 3]: 1.32% and 3.37% and 0.306% | C0 [2, 3]: 1707 ng/mL and 2045 ng/mL | Cl_obs [2, 3]: 52.6 mL/min/kg and 46.5 mL/min/kg and 48.6 mL/min/kg | MRTInf_obs [2, 3]: 1.52 h and 1.08 h | T1/2 [2, 3]: 1.66 h and 2.14 h and 4.37 h | Vss_obs [2, 3]: 3.43 L/kg and 4.26 L/kg and 3.16 L/kg | AUClast/D, Mean ([2]; IV 3 mg/kg, plasma, mean n=3): 334 kg·ng·h/mL/mg | AUC—% Extrap_obs, Mean ([2]; IV 3 mg/kg, plasma, mean n=3): 1.67% | C0, Mean ([2]; IV 3 mg/kg, plasma, mean n=3): 1822 ng/mL | Cl_obs, Mean ([2]; IV 3 mg/kg, plasma, mean n=3): 49.2 mL/min/kg | Vss_obs, Mean ([2]; IV 3 mg/kg, plasma, mean n=3): 3.61 L/kg | F ([2]; PO 10 mg/kg (equal to freebase) vs IV 3 mg/kg freebase, individual rats, vehicle 20% HP-β-CD in water (POA, freebase) or water (salts), listed as TLZ-16 freebase): 18.4% and 27.3% and 24.4% | F, Mean ([2]; PO 10 mg/kg (equal to freebase) vs IV 3 mg/kg freebase, mean n=3, vehicle 20% HP-β-CD in water (POA, freebase) or water (salts)): 23.4% | concentration in plasma ([2]; PO 10 mg/kg (equal to freebase), 0 h, individual rats, vehicle 20% HP-β-CD in water (POA, freebase) or water (salts)): BLOQ (BLOQ = below limit of quantitation (0.2 ng/mL)) | concentration in plasma ([2]; PO 10 mg/kg (equal to freebase), 0.25 h, individual rats, vehicle 20% HP-β-CD in water (POA, freebase) or water (salts), listed as TLZ-16 freebase, 10 mg/kg): 127 ng/mL and 358 ng/mL and 86.7 ng/mL | concentration in plasma ([2]; PO 10 mg/kg (equal to freebase), 0.5 h, individual rats, vehicle 20% HP-β-CD in water (POA, freebase) or water (salts), listed as TLZ-16 freebase, 10 mg/kg): 139 ng/mL and 344 ng/mL and 109 ng/mL | concentration in plasma ([2]; PO 10 mg/kg (equal to freebase), 1 h, individual rats, vehicle 20% HP-β-CD in water (POA, freebase) or water (salts), listed as TLZ-16 freebase, 10 mg/kg): 167 ng/mL and 98.9 ng/mL | concentration in plasma ([2]; PO 10 mg/kg (equal to freebase), 2 h, individual rats, vehicle 20% HP-β-CD in water (POA, freebase) or water (salts), listed as TLZ-16 freebase, 10 mg/kg): 53.1 ng/mL and 71.9 ng/mL | concentration in plasma ([2]; PO 10 mg/kg (equal to freebase), 4 h, individual rats, vehicle 20% HP-β-CD in water (POA, freebase) or water (salts), listed as TLZ-16 freebase, 10 mg/kg): 47.1 ng/mL and 40.1 ng/mL | concentration in plasma ([2]; PO 10 mg/kg (equal to freebase), 8 h, individual rats, vehicle 20% HP-β-CD in water (POA, freebase) or water (salts), listed as TLZ-16 freebase, 10 mg/kg): 35.7 ng/mL and 45.3 ng/mL | concentration in plasma ([2]; PO 10 mg/kg (equal to freebase), 24 h, individual rats, vehicle 20% HP-β-CD in water (POA, freebase) or water (salts), listed as TLZ-16 freebase, 10 mg/kg): BLOQ (BLOQ = below limit of quantitation (0.2 ng/mL)) and 0.278 ng/mL and 0.869 ng/mL | AUCInf [2, 4]: 925 ng·h/mL and 829 ng·h/mL | AUClast [2, 4]: 924 ng·h/mL and 825 ng·h/mL | AUClast/D [2, 4]: 61.5 kg·ng·h/mL/mg and 92.4 kg·ng·h/mL/mg and 82.5 kg·ng·h/mL/mg | AUC—% Extrap_obs [2, 4]: 58.7% and 0.111% and 0.505% | Cmax [2, 4]: 139 ng/mL and 358 ng/mL and 109 ng/mL | MRTInf_obs [2, 4]: 13.6 h and 4.19 h and 5.68 h | T1/2 [2, 4]: 8.80 h and 2.57 h and 3.34 h | Tmax [2, 4]: 0.25 h | AUClast/D, Mean ([2]; PO 10 mg/kg (equal to freebase), plasma, mean n=3, vehicle 20% HP-β-CD in water (POA, freebase) or water (salts)): 78.8 kg·ng·h/mL/mg
